What was measured:
IRAK4 = IRAK4 (Homo sapiens (Human), UniProt Q9NWZ3); assay: IRAK4 Biochemical Assay (TR-FRET/HTRF); details: IRAK4 enzyme 0.75 nM, 500 μM ATP, 2 μM STK1 peptide, 120 min
Experimental: IRAK4 Biochemical Assay Procedure:
IRAK4 enzyme (Carna Biosciences, Chuo-ku, Kobe, Japan) activity was measured by detecting phosphorylated peptide substrate formation using an antibody against the phosphorylated peptide substrate. This is a time-resolved fluorescence resonance energy transfer (TR-FRET) immunoassay, based on the STK1 KinEASE Assay (Cisbio, Bedford, Mass.). The assay was designed as a simple two-step, endpoint assay (a 5 μl enzyme reaction followed by 5 μl stop and detect Solution) performed in ProxiPlate-384 Plus plates (Perkin Elmer, Waltham, Mass.). Staurosporine, a non-selective kinase inhibitor was used as a positive control. Compounds diluted in DMSO were spotted into 384 well plates using a Labcyte® Echo 550 Liquid Handling System prior to addition of IRAK4 enzyme and peptide substrate. Reaction solutions were delivered using a Multi-Flo (Bio-Tek Instruments). The enzyme and peptide solution was incubated with compound for 15 minutes at room temp before the reaction was initiated by the addition of ATP. The standard 5 μl reaction mixture contained 500 μM ATP, 2 μM peptide (STK1 Peptide), 0.75 nM of IRAK4 in reaction buffer (50 mM HEPES, pH 7.0, 0.02% NaN3, 0.01% BSA, 0.1 mM Orthovanadate, 5 mM MgCl2, 0.025% NP-40, 1 mM DTT). After 120 min of incubation at room temperature, 5 μl of Stop and Detect Solution (1:100 Cryptate labeled anti-phosphorylated peptide antibody solution and 125 nM Tracer in a 50 mM HEPES pH 7.0 detection buffer containing sufficient EDTA) was added. The plate was then further incubated for 60 minutes at room temperature and read on Envision 2103 Multilabeled reader (PerkinElmer) with excitation/emission/FRET emission at 340 nm/615 nm/665 nm, respectively. Fluorescence intensities at 615 nm and 665 nm emission wavelengths were expressed as a ratio (665 nm/615 nm). Percentage of inhibition was calculated as below: % Inhibition=100×(RatioSample−Ratio0% Inhibition)/(Ratio100% Inhibition−Ratio0% Inhibition)
The 0% inhibition value comes from control wells lacking inhibitor. The 100% inhibition value comes from control wells containing a saturating amount of known inhibitor staurosporine.

TNFα = assay: IRAK4 Monocyte TNFα Cell Based Assay; details: Monocyte; cryopreserved human monocytes, 50 pg/ml LPS, compound 1 hour pre-treatment, 4 hours stimulation, TNFα by TR-FRET
Experimental: IRAK4 Monocyte TNFα Cell Based Assay Procedure:
The cell suspension was then plated at a density of 5,000 cells/well onto black 384 well Greiner clear bottom plates. Plates were pre-spotted with test compounds and serially diluted in DMSO where 40 nL/well were delivered using the Echo 550 acoustic liquid dispenser (Labcyte®) for a final DMSO concentration of 0.1%. Plated cells were treated with compound for 1 hour at 37° C. Cells were then stimulated with 50 pg/ml of LPS (Sigma) excluding outside columns of plate used for unstimulated cell control wells. Cells were incubated for an additional 4 hours at 37° C. Cells were then spun out of the media and 5 μl of sample were taken and analyzed for total TNFα content using the TR-FRET Human TNFα detection system (CisBio). This system utilizes two labeled antibodies (cryptate and XL665) that bind to two different epitopes of the TNFα molecule and produce FRET signal proportional to the concentration of TNFα in the sample. Detection antibodies are mixed 50:50 and 5 μL were dispensed into each well. Plates were covered with clear seals and incubated at room temp overnight. The following morning plates were read using an Envision 2103 Multilabeled reader (PerkinElmer) with excitation/emission/FRET emission at 340 nm/615 nm/665 nm, respectively. Fluorescence intensities at 615 nm and 665 nm emission wavelengths were expressed as a ratio (665 nm/615 nm). Percent of control was calculated as follows: % Control=100×(RatioSample−Ratio0% Stimulation)/(Ratio100% Stimulation−Ratio0% Stimulation)
where unstimulated cells (0% stimulation) were the negative control and stimulated cells (100% stimulation) were used as the positive control.

IRAK4, sequence (Q9NWZ3 whole entry): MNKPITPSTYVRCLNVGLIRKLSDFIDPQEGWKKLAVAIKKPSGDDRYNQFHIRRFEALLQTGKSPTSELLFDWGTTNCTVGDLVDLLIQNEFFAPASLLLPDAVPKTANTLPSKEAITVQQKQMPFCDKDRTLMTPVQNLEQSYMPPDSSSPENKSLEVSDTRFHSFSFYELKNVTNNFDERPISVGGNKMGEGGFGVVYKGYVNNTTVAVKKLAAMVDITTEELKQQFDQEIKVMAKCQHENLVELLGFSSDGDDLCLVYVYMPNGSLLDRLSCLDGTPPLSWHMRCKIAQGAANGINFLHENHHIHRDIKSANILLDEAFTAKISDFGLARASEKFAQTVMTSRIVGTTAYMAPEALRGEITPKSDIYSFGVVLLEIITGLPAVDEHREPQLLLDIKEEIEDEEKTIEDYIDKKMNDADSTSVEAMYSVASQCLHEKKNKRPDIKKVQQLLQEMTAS

Row | Compound | IC50 (IRAK4) [nM] | EC50 (TNFα) [nM]
1 | CC(C)(O)[C@H](F)CNC(=O)c1cnc(-c2ccc3cc(C#N)cnn23)cc1N[C@H]1CC[C@H](c2cnn(C(F)(F)F)c2)CC1 [Compound 4, 6-(3-cyanopyrrolo[1,2-b]pyridazin-7-yl)-N-((R)-2-fluoro-3-hydroxy-3-methylbutyl)-4-(((1r,4R)-4-(1-(trifluoromethyl)-1H-pyrazol-4-yl)cyclohexyl)amino)nicotinamide] | 3 | 37
2 | Cc1nnc(C23CCC(Nc4cc(-c5ccc6cc(C#N)cnn56)ncc4C(=O)NC[C@@H](F)C(C)(C)O)(CC2)CC3)o1 [Compound 60, (R)-6-(3-cyanopyrrolo[1,2-b]pyridazin-7-yl)-N-(2-fluoro-3-hydroxy-3-methylbutyl)-4-((4-(5-methyl-1,3,4-oxadiazol-2-yl)bicyclo[2.2.2]octan-1-yl)amino)nicotinamide] | < 1 | 15
3 | CCn1cc([C@H]2CC[C@H](Nc3cc(-c4ccc5cc(C#N)cnn45)ncc3C(=O)NC[C@@H](F)C(C)(C)O)CC2)cn1 [Compound 12, 6-(3-cyanopyrrolo[1,2-b]pyridazin-7-yl)-4-(((1r,4R)-4-(1-ethyl-1H-pyrazol-4-yl)cyclohexyl)amino)-N-((R)-2-fluoro-3-hydroxy-3-methylbutyl)nicotinamide] | 2 | 44
4 | Cc1c(C2CCC(Nc3cc(-c4ccc5cc(C#N)cnn45)ncc3C(=O)NC[C@@H](F)C(C)(C)O)CC2)cnn1C(F)F (stereo partly drawn) [Compound 10, (R)-6-(3-cyanopyrrolo[1,2-b]pyridazin-7-yl)-4-((4-(1-(difluoromethyl)-5-methyl-1H-pyrazol-4-yl)cyclohexyl)amino)-N-(2-fluoro-3-hydroxy-3-methylbutyl)nicotinamide] | 8 | 55
5 | CC(C)(O)[C@H](F)CNC(=O)c1cnc(-c2ccc3cc(C#N)cnn23)cc1N[C@H]1CC[C@H](n2cnnn2)CC1 [Compound 38, 4-(((1r,4R)-4-(1H-tetrazol-1-yl)cyclohexyl)amino)-6-(3-cyanopyrrolo[1,2-b]pyridazin-7-yl)-N-((R)-2-fluoro-3-hydroxy-3-methylbutyl)nicotinamide] | < 1 | 24
6 | Cc1ncc(C2CCC(Nc3cc(-c4ccc5cc(C#N)cnn45)ncc3C(=O)NC[C@@H](F)C(C)(C)O)CC2)cn1 (stereo partly drawn) [Compound 58, (R)-6-(3-cyanopyrrolo[1,2-b]pyridazin-7-yl)-N-(2-fluoro-3-hydroxy-3-methylbutyl)-4-((4-(2-methylpyrimidin-5-yl)cyclohexyl)amino)nicotinamide] | 4 | 112
7 | CC(C)(O)[C@H](F)CNC(=O)c1cnc(-c2ccc3cc(C#N)cnn23)cc1NC12CCC(N3CCC(F)(F)CC3)(CC1)CC2 [Compound 68, (R)-6-(3-cyanopyrrolo[1,2-b]pyridazin-7-yl)-4-((4-(4,4-difluoropiperidin-1-yl)bicyclo[2.2.2]octan-1-yl)amino)-N-(2-fluoro-3-hydroxy-3-methylbutyl)nicotinamide] | < 1 | 38
8 | CC(C)(O)[C@H](F)CNC(=O)c1cnc(-c2ccc3cc(C#N)cnn23)cc1N[C@H]1CC[C@H](n2cc(C(F)F)nn2)CC1 [Compound 35, 6-(3-cyanopyrrolo[1,2-b]pyridazin-7-yl)-4-(((1r,4R)-4-(4-(difluoromethyl)-1H-1,2,3-triazol-1-yl)cyclohexyl)amino)-N-((R)-2-fluoro-3-hydroxy-3-methylbutyl)nicotinamide] | < 1 | 16
9 | CC(C)(O)[C@H](F)CNC(=O)c1cnc(-c2ccc3cc(C#N)cnn23)cc1N[C@H]1CC[C@H](c2cc(C(F)F)no2)CC1 [Compound 47, 6-(3-cyanopyrrolo[1,2-b]pyridazin-7-yl)-4-(((1r,4R)-4-(3-(difluoromethyl)isoxazol-5-yl)cyclohexyl)amino)-N-((R)-2-fluoro-3-hydroxy-3-methylbutyl)nicotinamide] | 2 | 89
10 | CC(C)(O)[C@H](F)CNC(=O)c1cnc(-c2ccc3cc(C#N)cnn23)cc1NC1CCC(c2cnc(C(F)F)s2)CC1 (stereo partly drawn) [Compound 51, (R)-6-(3-cyanopyrrolo[1,2-b]pyridazin-7-yl)-4-((4-(2-(difluoromethyl)thiazol-5-yl)cyclohexyl)amino)-N-(2-fluoro-3-hydroxy-3-methylbutyl)nicotinamide] | 3 | 76
11 | CC(C)(O)[C@H](F)CNC(=O)c1cnc(-c2ccc3cc(C#N)cnn23)cc1N[C@H]1CC[C@H](c2cnn(CC(F)F)c2)CC1 [Compound 5, 6-(3-cyanopyrrolo[1,2-b]pyridazin-7-yl)-4-(((1r,4R)-4-(1-(2,2-difluoroethyl)-1H-pyrazol-4-yl)cyclohexyl)amino)-N-((R)-2-fluoro-3-hydroxy-3-methylbutyl)nicotinamide] | < 1 | 22
12 | CC(C)(O)[C@H](F)CNC(=O)c1cnc(-c2ccc3cc(C#N)cnn23)cc1N[C@H]1CC[C@H](c2cncs2)CC1 [Compound 49, 6-(3-cyanopyrrolo[1,2-b]pyridazin-7-yl)-N-((R)-2-fluoro-3-hydroxy-3-methylbutyl)-4-(((1r,4R)-4-(thiazol-5-yl)cyclohexyl)amino)nicotinamide] | < 1 | 13

More lines, now with the values ahead:

Row | IC50 (IRAK4) [nM] | EC50 (TNFα) [nM] | Compound
13 | 1 | 17 | Cc1c([C@H]2CC[C@H](Nc3cc(-c4ccc5cc(C#N)cnn45)ncc3C(=O)NC[C@@H](F)C(C)(C)O)CC2)cnn1C(F)F [Compound 11, 6-(3-cyanopyrrolo[1,2-b]pyridazin-7-yl)-4-(((1r,4R)-4-(1-(difluoromethyl)-5-methyl-1H-pyrazol-4-yl)cyclohexyl)amino)-N-((R)-2-fluoro-3-hydroxy-3-methylbutyl)nicotinamide]
14 | < 1 | 35 | Cn1nnc([C@H]2CC[C@H](Nc3cc(-c4ccc5cc(C#N)cnn45)ncc3C(=O)NC[C@@H](F)C(C)(C)O)CC2)n1 [Compound 15, 6-(3-cyanopyrrolo[1,2-b]pyridazin-7-yl)-N-((R)-2-fluoro-3-hydroxy-3-methylbutyl)-4-(((1r,4R)-4-(2-methyl-2H-tetrazol-5-yl)cyclohexyl)amino)nicotinamide]
15 | < 1 | 27 | CC(C)(O)[C@H](F)CNC(=O)c1cnc(-c2ccc3cc(C#N)cnn23)cc1N[C@H]1CC[C@H](c2nnc(C(F)F)s2)CC1 [Compound 53, 6-(3-cyanopyrrolo[1,2-b]pyridazin-7-yl)-4-(((1r,4R)-4-(5-(difluoromethyl)-1,3,4-thiadiazol-2-yl)cyclohexyl)amino)-N-((R)-2-fluoro-3-hydroxy-3-methylbutyl)nicotinamide]
16 | 1 | 53 | CC(C)(O)[C@H](F)CNC(=O)c1cnc(-c2ccc3cc(C#N)cnn23)cc1N[C@H]1CC[C@H](c2cnn(C3CC3)c2)CC1 [Compound 14, 6-(3-cyanopyrrolo[1,2-b]pyridazin-7-yl)-4-(((1r,4R)-4-(1-cyclopropyl-1H-pyrazol-4-yl)cyclohexyl)amino)-N-((R)-2-fluoro-3-hydroxy-3-methylbutyl)nicotinamide]
17 | 2 | 169 | CC(C)(O)[C@H](F)CNC(=O)c1cnc(-c2ccc3cc(C#N)cnn23)cc1N[C@H]1CC[C@H](c2cnn(CC3CC3)c2)CC1 [Compound 13, 6-(3-cyanopyrrolo[1,2-b]pyridazin-7-yl)-4-(((1r,4R)-4-(1-(cyclopropylmethyl)-1H-pyrazol-4-yl)cyclohexyl)amino)-N-((R)-2-fluoro-3-hydroxy-3-methylbutyl)nicotinamide]
